According to ChEMBL document CHEMBL1201862, “PubChem BioAssay data set” (2004):
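Briefly, cells in 96-well plates were exposed to five compound concentrations for 48 h, and endpoints were estimated by linear interpolation. The concentration for 50% growth inhibition is given as GI50.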 Activity calls are given as the source filed them. Rule as the data show it: active = GI50 up to about 1.1 µM and inactive = higher.

Key:
Assay in all cases: NCI tumour cell line growth inhibition, 48 h
[1] = tested on: 786-0
[2] = tested on: A498
[3] = tested on: A549
[4] = tested on: ACHN
[5] = tested on: BT-549
[6] = tested on: CAKI-1
[7] = tested on: CCRF-CEM
[8] = tested on: COLO 205
[9] = tested on: DU-145
[10] = tested on: EKVX
[11] = tested on: HCC 2998
[12] = tested on: HCT-116
[13] = tested on: HCT-15
[14] = tested on: HL-60
[15] = tested on: HOP-62
[16] = tested on: HOP-92
[17] = tested on: HT-29
[18] = tested on: Hs-578T
[19] = tested on: IGROV-1
[20] = tested on: K562
[21] = tested on: KM12
[22] = tested on: LOX IMVI
[23] = tested on: M14
[24] = tested on: MCF7
[25] = tested on: MDA-MB-231
[26] = tested on: MDA-MB-435
[27] = tested on: MDA-N
[28] = tested on: MOLT-4
[29] = tested on: Malme-3M
[30] = tested on: NCI-H226
[31] = tested on: NCI-H23
[32] = tested on: NCI-H460
[33] = tested on: NCI-H522
[34] = tested on: NCI/ADR-RES
[35] = tested on: OVCAR-3
[36] = tested on: OVCAR-4
[37] = tested on: OVCAR-5
[38] = tested on: OVCAR-8
[39] = tested on: PC-3
[40] = tested on: RPMI-8226
[41] = tested on: RXF 393
[42] = tested on: SF-268
[43] = tested on: SF-295
[44] = tested on: SF-539
[45] = tested on: SK-MEL-28
[46] = tested on: SK-MEL-2
[47] = tested on: SK-MEL-5
[48] = tested on: SK-OV-3
[49] = tested on: SN12C
[50] = tested on: SNB-19
[51] = tested on: SNB-75
[52] = tested on: SR
[53] = tested on: SW-620
[54] = tested on: T47D
[55] = tested on: TK-10
[56] = tested on: U-251
[57] = tested on: UACC-257
[58] = tested on: UACC-62
[59] = tested on: UO-31
[60] = tested on: DLD-1
[61] = tested on: DMS-273
[62] = tested on: HOP-18
[63] = tested on: KM-20L2
[64] = tested on: LXFL 529
[65] = tested on: M19-MEL
[66] = tested on: SNB-78

In the case of `O=c1cc(NNc2ccccc2)[nH]c(=S)[nH]1`, the GI50 [1] is reported as 4.9 µM (inactive), the GI50 [2] is reported as > 100 µM (inactive) and the GI50 [3] is reported as > 100 µM (inactive). The GI50 [4] was 43.7 µM (inactive), the GI50 [5] was 97.5 µM (inactive) and the GI50 [6] was 20.3 µM (inactive). The GI50 [7] was 29.8 µM (inactive), the GI50 [8] was 49 µM (inactive) and the GI50 [9] was 64.9 µM (inactive). For the same molecule, the GI50 [10] was 98.9 µM (inactive), the GI50 [11] was 17.4 µM (inactive) and the GI50 [12] was 23.2 µM (inactive). For the same molecule, the GI50 [13] was 17.8 µM, the GI50 [14] was 25.1 µM (inactive) and the GI50 [15] was > 100 µM (inactive). The GI50 [16] was 32.6 µM (inactive), the GI50 [17] was 37.8 µM (inactive) and the GI50 [18] was > 100 µM (inactive). The GI50 [19] was 79.4 µM (inactive), the GI50 [20] was 32.4 µM (inactive) and the GI50 [21] was 27.5 µM (inactive). For the same molecule, the GI50 [22] was 16.8 µM (inactive), the GI50 [23] was 36.7 µM (inactive) and the GI50 [24] was 25.9 µM (inactive). For the same molecule, the GI50 [25] was 32.1 µM (inactive), the GI50 [26] was 49.5 µM (inactive) and the GI50 [27] was 40.6 µM (inactive). The GI50 [28] was 35.2 µM (inactive), the GI50 [29] was 37.7 µM (inactive) and the GI50 [30] was > 100 µM (inactive). The GI50 [31] was 47.1 µM (inactive), the GI50 [32] was 76.2 µM (inactive) and the GI50 [33] was 17.5 µM (inactive). For the same molecule, the GI50 [34] was 40.6 µM (inactive), the GI50 [35] was 16.7 µM (inactive) and the GI50 [36] was 71 µM (inactive). The GI50 [37] was > 100 µM (inactive), the GI50 [38] was 36.1 µM (inactive) and the GI50 [39] was > 100 µM (inactive). For the same molecule, the GI50 [40] was 10.5 µM (inactive), the GI50 [41] was 50.2 µM (inactive) and the GI50 [42] was 32.7 µM (inactive). For the same molecule, the GI50 [43] was > 100 µM (inactive), the GI50 [44] was 50.2 µM (inactive) and the GI50 [45] was 42.7 µM (inactive). For the same molecule, the GI50 [46] was 16.6 µM (inactive), the GI50 [47] was 57 µM (inactive) and the GI50 [48] was > 100 µM (inactive). For the same molecule, the GI50 [49] was > 100 µM (inactive), the GI50 [50] was > 100 µM (inactive) and the GI50 [51] was > 100 µM (inactive). The GI50 [52] was 22.5 µM (inactive), the GI50 [53] was 20.5 µM (inactive) and the GI50 [54] was 27.1 µM (inactive). The GI50 [55] was 24.9 µM (inactive), the GI50 [56] was 45 µM (inactive) and the GI50 [57] was 47.6 µM (inactive). The GI50 [58] was 63.1 µM (inactive) and the GI50 [59] was > 100 µM (inactive).

`CCc1cccc(C)c1NC(=O)CCc1n[nH]c(=S)o1` was tested, and the GI50 [1] was > 100 µM (inactive), the GI50 [2] was > 100 µM (inactive) and the GI50 [4] was > 100 µM (inactive). For the same molecule, the GI50 [6] was > 100 µM (inactive), the GI50 [7] was > 100 µM (inactive) and the GI50 [8] was 44.6 µM (inactive). The GI50 [60] was 44.4 µM (inactive), the GI50 [61] was 37.8 µM (inactive) and the GI50 [10] was > 100 µM (inactive). For the same molecule, the GI50 [11] was > 100 µM (inactive), the GI50 [12] was 16.1 µM (inactive) and the GI50 [13] was 55.1 µM. The GI50 [14] was > 100 µM (inactive), the GI50 [62] was > 100 µM (inactive) and the GI50 [15] was > 100 µM (inactive). The GI50 [16] was > 100 µM (inactive), the GI50 [17] was 95.5 µM (inactive) and the GI50 [19] was > 100 µM (inactive). For the same molecule, the GI50 [20] was 66.8 µM (inactive), the GI50 [63] was > 100 µM (inactive) and the GI50 [21] was > 100 µM (inactive). For the same molecule, the GI50 [64] was > 100 µM (inactive), the GI50 [23] was > 100 µM (inactive) and the GI50 [65] was > 100 µM (inactive). For the same molecule, the GI50 [28] was > 100 µM (inactive), the GI50 [29] was > 100 µM (inactive) and the GI50 [30] was > 100 µM (inactive). For the same molecule, the GI50 [31] was > 100 µM (inactive), the GI50 [32] was > 100 µM (inactive) and the GI50 [33] was > 100 µM (inactive). For the same molecule, the GI50 [35] was > 100 µM (inactive), the GI50 [36] was > 100 µM (inactive) and the GI50 [37] was > 100 µM (inactive). For the same molecule, the GI50 [38] was > 100 µM (inactive), the GI50 [40] was 21.6 µM (inactive) and the GI50 [42] was > 100 µM (inactive). The GI50 [43] was > 100 µM (inactive), the GI50 [44] was > 100 µM (inactive) and the GI50 [45] was > 100 µM (inactive). For the same molecule, the GI50 [47] was > 100 µM (inactive), the GI50 [48] was > 100 µM (inactive) and the GI50 [49] was > 100 µM (inactive). For the same molecule, the GI50 [50] was > 100 µM (inactive), the GI50 [51] was > 100 µM (inactive) and the GI50 [66] was > 100 µM (inactive). The GI50 [53] was 13.3 µM (inactive), the GI50 [55] was > 100 µM (inactive) and the GI50 [56] was > 100 µM (inactive). For the same molecule, the GI50 [57] was > 100 µM (inactive), the GI50 [58] was > 100 µM (inactive) and the GI50 [59] was > 100 µM (inactive).
